From US20240209022A1, “NOVEL PEPTIDE HAVING ANTI-INFLAMMATORY AND TISSUE REGENERATIVE ACTIONS” (KOREA RESEARCH INSTITUTE OF BIOSCIENCE AND BIOTECHNOLOGY, priority 2020, published 2024)

Key:
Format in all cases: in vivo, C57BL/6J mice
[1] = system: non-alcoholic hepatitis model; assay: High-fat diet-induced non-alcoholic steatohepatitis model, liver gene expression; conditions: RT-qPCR; vs PBS buffer group
Method: A non-alcoholic hepatitis model was induced by feeding a high-fat diet to 8-week-old SPF male C57BL/6J mice. The experiment for groups administered with Amuc_1409 and PEP001 to PEP005 was performed as follows. Mice fed a high-fat diet for 45 weeks were fed a high-fat diet for an additional 3 weeks, and Amuc_1409 was dissolved in PBS buffer at a concentration of 2.4 μM and then orally administered to the mice by 150 μL per animal at the same time once a day until the end of the experiment, or mice fed a high-fat diet for 8 weeks were fed a high-fat diet for an additional 3 weeks, and PEP001, PEP002, PEP003, PEP004, or PEP005 was dissolved in PBS buffer at a concentration of 2.4 μM and then orally administered to the mice by 150 μL per animal at the same time once a day until the end of the experiment. To the control group, PBS buffer was orally administered in the same manner. The experiment for groups administered with PEP006 to PEP013 was performed as follows. The non-alcoholic hepatitis model was induced by ad libitum feeding of a high-fat diet for 32, 50, or 53 weeks. Mice fed a high-fat diet for 50 weeks were fed a high-fat diet for an additional 3 weeks, and a novel tetrapeptide PEP006, PEP007, PEP008, PEP009, or PEP010 was dissolved in PBS buffer at a concentration of 0.2 μg/150 μL and then orally administered to the mice by 150 μL per animal at the same time until the end of the test, and mice fed a high-fat diet for 53 weeks were fed a high-fat diet for an additional 3 weeks, and a novel […] PEP011, PEP012, or PEP013 was dissolved in PBS buffer at a concentration of 0.2 μg/150 μL and then orally administered to the mice by 150 μL per animal at the same time until the end of the test. To the control group, PBS buffer was orally administered in the same manner. At the end of the experiment, a part of the liver harvested was homogenized with Trizol to extract RNA. Reverse transcriptase was added to the obtained RNA and reacted to synthesize cDNA, and SYBR Green and primers were added to perform quantitative real-time PCR (RT-qPCR), and then the expression levels of genes such as Tnfα, Il-1β, Il-10, and Il-1rn were quantified.

[2] = system: full-thickness skin defect wound-induced model; assay: Full-thickness skin defect wound-induced model (tail); conditions: 120 μM, 25 μL applied once a day for 28 days; vs vehicle
Method: In order to confirm the tissue regeneration efficacy of the novel peptides, an experiment was conducted using a wound-induced model induced by a full-thickness skin defect of mouse's tail. For a full-thickness skin defect wound-induced model, 9-week-old specific pathogen free (SPF) male C57BL/6J mice were anesthetized, and then in order to indicate full-thickness wounding, a full-thickness wound with a size of 10 mm×3 mm was made on the dorsal part of the mouse's tail, about 1.0 cm away from the base of the mouse's tail, using an aseptic dissection mass No. 10. Bleeding was stopped by compressing the wound, and the wound was covered with a film spray dressing (Cavilon, 3M). For 28 days from the day of wound induction, Amuc_1409 or PEP001 to PEP013 were each dissolved in vehicle (50% ethanol, 20% propylene glycol, 30% water) at a concentration of 120 μM and then applied to the wound site by 25 μL per animal once a day. For the control group, the same volume of vehicle (50% ethanol, 20% propylene glycol, 30% water) was applied to the wound site. The test was terminated on day 29 after wound induction. In order to observe the wound healing effect, the wound sites of animals in each test group were individually photographed using a digital camera at a constant height from the wound for 28 days at 7-day intervals from the day of wound induction, and the wound area was measured using the Image J Soft program.

[3] = system: depression and anxiety model; assay: LPS-induced depression and anxiety model (TST, FST, EPM); conditions: vs PBS buffer group; for Ifnγ mRNA expression in brain tissue (hippocampus) / Il-10 mRNA expression in brain tissue (hippocampus): RT-qPCR; for immobility time in forced swim test / immobility time in tail suspension test: oral, LPS-induced
Method: By Daehan Biolink, 7-week-old male C57BL/6J mice weighing 20-22 g were supplied, and the animals were sufficiently supplied with solid feed and water until the day of the experiment, acclimatized for 1 week while maintaining an environment with a temperature of 22° C. 2° C., a humidity of 55%±15%, and a 12-hour light/dark cycle, and then used in the experiment. From 3 days before inducing depression and anxiety, the peptide was dissolved in PBS buffer and orally administered to the mice by 150 μL per animal at the same time once a day. Amuc_1409 or PEP001, PEP002, PEP003, PEP004, or PEP005 was dissolved in PBS buffer at a concentration of 6.7 μM and then used, and novel tetrapeptides PEP006, PEP007, PEP008, PEP009, and PEP010 and novel tripeptides PEP011, PEP012, and PEP013 were each dissolved in PBS buffer at a concentration of 0.2 μg/150 μL and then used. On the 3rd day of peptide administration, lipopolysaccharide (LPS) dissolved in PBS buffer was intraperitoneally injected at a concentration of 0.8 mg/kg to induce depression and anxiety. Tail suspension test (TST) and forced swim test (FST) were conducted to analyze the effect on depression. As the TST, a tail suspension device was installed in an open white acrylic box of 20 cm×25 cm×30 cm size, and the mouse was suspended upside down at a height where the mouse's tail would not touch the floor, and then the time for which the mouse maintained immobility while observing in the same environment was measured for 6 minutes. […] Water at around 25° C. was filled in a transparent acrylic cylinder (45 cm depth×18 cm diameter) up to 30 cm from the bottom, the mouse was exposed to water, and the time for which the mouse maintained immobility while swimming was measured for 6 minutes. […] An elevated plus-maze (EPM) test was performed to analyze the effect on anxiety level. The EPM device consists of two open arms (50 cm×10 cm) and two […] (50 cm×10 cm) at a height of 50 cm from the floor, and the arms are connected by a central area of 10 cm×10 cm. At the start of the experiment, the mouse was placed in the center of the maze and the time for which the mouse stayed in the open arm was measured for a total of 5 minutes using a video camera, and the percentage of time spent in the open arm was calculated and recorded [(time spent in open arm/time spent in open and closed arms)×100]. In addition, in order to examine the anti-inflammatory activity according to the administration of Amuc_1409 and PEP001, PEP002, PEP003, PEP004, and PEP005 in an animal model of depression and anxiety, the expression of Ifnγ and Il-10 mRNA, which are major inflammatory genes related to depression, in brain tissue (hippocampus) was examined.

Molecule	11-10, which is an anti-inflammatory index (liver gene expression) [1]	Il-1p gene expression in liver tissue [1]	wound area [2]	wound size (visually confirmed) [2]	Ifnγ mRNA expression in brain tissue (hippocampus) [3]	Il-10 mRNA expression in brain tissue (hippocampus) [3]	immobility time in forced swim test [3]	immobility time in tail suspension test [3]	time spent in the open arm, elevated plus-maze test [3]	Tnfα gene expression in liver tissue [1]	Ifnγ gene expression in liver tissue [1]	Il-6 gene expression in liver tissue [1]	Il-1rn, additional anti-inflammatory index (liver gene expression) [1]
AVSSI (PEP002)	tended to increase close to a significant level	significantly decreased	significantly decreased	rapidly decreased	significantly decreased	significantly increased	significantly decreased	significantly decreased	increased	–	–	–	–
KGAY (PEP003)	significantly increased	significantly decreased	significantly decreased	rapidly decreased	significantly decreased	significantly increased	significantly decreased	significantly decreased	increased	significantly decreased	–	–	–
AIS [PEP013]	–	significantly decreased	significantly decreased	rapidly decreased	–	–	tended to decrease	decreased	–	–	tended to decrease	–	–
SGAY (PEP009)	–	significantly decreased	significantly decreased	rapidly decreased	–	–	tended to decrease	decreased	–	tended to decrease	tended to decrease	tended to decrease	–
IGAY (PEP008)	–	significantly decreased	significantly decreased	rapidly decreased	–	–	tended to decrease	decreased	–	significantly decreased	decreased close to a significant level	tended to decrease	–
AQS [PEP011]	–	tended to decrease	significantly decreased	rapidly decreased	–	–	tended to decrease	decreased	–	–	tended to decrease	–	–
Amuc_1409: SEQ ID NO: 15, functional fragment obtained by eliminating the leader sequence from SEQ ID NO: 14; protein derived from Akkermansia muciniphila (protein, Amuc_1409_fragment, protein derived from Akkermansia muciniphila) IPESSVPAAAVSSIKGAYPNAGPIEWDSEMHGMERIYEAEFRINGFQFDVKIAPDGKIVRIKEEIAASSLPEAVRASVLKRYPGCRIKEAEKITEGELVRYKVEVADSRDDYDVLIAPDGNILHVDR	significantly increased	significantly decreased	significantly decreased	rapidly decreased	decreased	increased	significantly decreased	significantly decreased	increased	–	–	–	significantly increased
